Results from patent publication US10617695B2, “Ophthalmic compositions containing alcaftadine” (Vistakon Pharmaceuticals, LLC, priority 2006, dated 2020).

Key:
[1] = test system: RBL-CCR1 (Rat Basophil Leukemia-Chemokine Receptor-1) cell line; assay: Mast cell degranulation / cell stabilization in RBL-CCR1 cells; assay type: cell-based
Protocol: The cell stabilization potential of alcaftadine was evaluated using the RBL-CCR1 (Rat Basophil Leukemia-Chemokine Receptor-1) cell line as a way of investigating its ability to effect mast cell stabilization. The use of basophil cell lines to assess anti-allergic drugs for cell stabilization potential is well established. Physiologically, basophils are similar to mast cells, containing pre-formed inflammatory mediators that are released through a similar degranulation process involving IgE cross-linking. Because these cell lines are readily available, they present efficiencies over conducting stabilization assays in mast cell lines.
Cultured RBL-CCR1 cells were sensitized to anti-DNP IgE. Following sensitization, cells were treated with various concentrations of alcaftadine or its major active metabolite (0.083%, 0.0083% and 0.00083%) or ophthalmic vehicle (placebo), and stimulated with DNP and/or MIP-1a (Macrophage Inflammatory Protein-1 alpha, a degranulation enhancer) to induce degranulation. A 10× and 100× placebo control solution (ophthalmic vehicle solution) in D-DEM (Dulbecco's modified Eagle's medium) was also employed.
However, co-stimulation induced a robust degranulation response.

[2] = test system: guinea pigs systemically sensitized to rabbit skin squames and topically challenged with rabbit allergens; assay: Anti-allergic activity against acute-phase allergic conjunctivitis (edema and erythema) in sensitized guinea pigs; assay type: in vivo, guinea pig
Protocol: The effect of alcaftadine against acute-phase reactions of allergic conjunctivitis (edema and erythema) was compared to the effect of other known anti-allergens in guinea pigs that were systemically sensitized to rabbit skin squames and topically challenged 17 days later with rabbit allergens.
Anesthetized male albino guinea pigs (Dunkin-Hartley) weighing about 230 to 250 g were injected intramuscularly at the left quadriceps with 50 μl of purified rabbit allergens. The rabbit allergens consisted of Al(OH)3-adsorbed rabbit squames (Halab, Brussels, Belgium), which had been homogenized and washed clean of preservative (0.5% (V/V) phenol) with sterile physiologic saline.
Alcaftadine was […] administered to each eye in dosages ranging from 0.005 mg/kg to 1.0 mg/kg at 24 hours and 1 hour before challenge. Other test compounds included oxatomide, ketotifen, astemizole, cetirizine, loratadine and terfenadine, administered at dosages of 0.1 mg/kg and 1.0 mg/kg.
At day 17 post sensitization the left eye was challenged by instilling 25 μl of 100% normal rabbit serum. At the same time as the allergen challenge, the right eye was instilled with 25 μl of 1.5 mg/ml histamine dihydrochloride (98%, Sigma) dissolved in deionised, Millipore-filtered water.
Thirty minutes after challenge, edema and erythema were assessed in the tarsal and bulbar conjunctiva of both eyes and scored as absent (0), weak (1), moderate (2), severe (3), or very severe (4) by a trained technician.

[3] = test system: adult volunteers with a history of allergic conjunctivitis; assay: Conjunctival Allergen Challenge (CAC) in adult volunteers; assay type: in vivo, human
Protocol: The anti-allergic effect of a single dose of each of the three concentrations of alcaftadine ophthalmic solutions from Example 1 was assessed in a Conjunctival Allergen Challenge (“CAC”) performed on adult volunteers with a history of allergic conjunctivitis. Subjects were selected after two visits to confirm reactivity to the allergen challenge. […] Subjects were then challenged with allergen by instilling reconstituted commercially available allergen into each eye on two separate visits 16 hours and 15 minutes after the bilateral instillation of alcaftadine, PATANOL® olopatadine hydrochloride ophthalmic solution 0.1% (Alcon, Inc., Fort Worth, Tex.) or vehicle, and the clinical response assessed.
Assessments were made at 7, 15 and 20 minutes post challenge based on investigator evaluations of redness using a 5 point scale.
Nasal symptoms of sneezing, rhinorrhea, pruritis (nasal and ear/palate) and nasal congestion were assessed by subjects using standardized scales.

[4] = biological target: T1, human histamine H4 receptor (Homo sapiens, UniProt Q9H3N8); assay: [3H]histamine competition binding to membranes of SK-N-MC cells transfected with human H4 receptor
T1 construct: express a reporter gene construct and the human H4 receptor full-coding region; expressed in transfected cells; host or cells: SK-N-MC cells with a CRE-beta-galactosidase reporter

[5] = administered 16 hours prior to challenge

T1 sequence (Q9H3N8 whole entry): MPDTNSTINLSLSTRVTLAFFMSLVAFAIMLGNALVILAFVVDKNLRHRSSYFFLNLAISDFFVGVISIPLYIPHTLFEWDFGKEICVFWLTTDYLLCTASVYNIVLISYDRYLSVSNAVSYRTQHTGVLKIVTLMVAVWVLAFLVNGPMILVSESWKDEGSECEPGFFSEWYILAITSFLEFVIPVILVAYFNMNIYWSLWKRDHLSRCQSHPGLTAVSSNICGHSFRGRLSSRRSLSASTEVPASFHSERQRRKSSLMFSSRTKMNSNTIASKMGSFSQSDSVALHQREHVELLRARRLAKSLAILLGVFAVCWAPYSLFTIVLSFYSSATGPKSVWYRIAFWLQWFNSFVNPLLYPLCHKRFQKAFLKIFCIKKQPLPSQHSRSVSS

## CN1CCC(=C2c3ccccc3CCn3c(C=O)cnc32)CC1 [Alcaftadine, 6,11-dihydro-11-(1-methyl-4-piperidinylidene)-5H-imidazo[2,1-b][3]benzazepine-3-carboxaldehyde]
[1]
  overall membrane stabilization: effective membrane stabilizing agents
[1]; 10× dose level
  stabilization effect added to that of placebo: enhanced the stabilization effect
[1]; […], DNP-HSA alone, MIP-1a alone, and co-stimulation
  degranulation at the highest concentration: unanticipated and significant degranulation
[1]; co-stimulation assay, concentrations of […] and […], p<0.0001 for both concentrations
  cell stabilization compared to co-stimulation control and negative controls (placebo 10× and placebo 100×): superior at cell stabilization
[2]; dosed 24 hours and 1 hour before challenge, edema and erythema scored 30 minutes after challenge
  dose from which acute allergic symptoms were significantly alleviated: 0.1 mg/kg
[2]; on an equivalent mg/kg basis
  potency compared with astemizole, cetirizine and loratadine: significantly more potent
  potency compared with oxatomide, ketotifen and terfenadine: more potent
[3]; 0.25% treatment group, challenged 15 minutes post-treatment
  itching scores versus vehicle or PATANOL: lower itching scores than vehicle or PATANOL®
[3]; 0.25% treatment group, challenged at 15 minutes post-treatment
  conjunctival redness scores versus vehicle or PATANOL: lower scores than vehicle or PATANOL®
[3]; [5]
  inhibition of conjunctival redness: dose-related inhibition of conjunctival redness
  inhibition of ocular itching: dose-related inhibition of ocular itching
[3]; all concentrations, 16 hours prior to challenge, 3, 5 and 7 minutes post-challenge, 5 point scale
  mean itching scores versus vehicle or PATANOL: lower mean itching scores
[3]; all concentrations, 16 hours prior to challenge, 7, 15 and 20 minutes post challenge, 5 point scale
  mean conjunctival redness scores: various degrees of reduction in mean conjunctival redness scores at most assessment times
[3]; all concentrations, various time points
  relief of nasal congestion and rhinorrhea: some degree of relief
[3]; baseline sneezing incidence likely too low
  effect on sneezing: No effect on sneezing was demonstrated
[3]; challenged 15 minutes post-treatment
  inhibition of ocular itching: dose-related inhibition of ocular itching as compared to placebo
[3]; majority of timepoints at both onset and duration visits
  reduction of rhinorrhea, nasal congestion, and pruritis of the palate/ear: significant reduction
[4]; average of two runs, 10 nM [3H]histamine, Cheng and Prusoff
  Ki: 2900 nM
[4]; compared with pA2
  pKi: 5.5
